One experiment deals with SK-BR3. The experiment in a line: SRB colorimetric cell growth inhibition assay. The following applies: for GI50 / CC50: Homo sapiens, SK-BR-3, 48 h; for CC50: read-out: LC50; for TGI: SK-BR3, breast, 48 hours exposure.
The test system of another experiment is IGROV. As to the kind of experiment: SRB colorimetric cell growth inhibition assay. Particulars: for GI50 / CC50: Homo sapiens, 48 h; for CC50: read-out: LC50; for TGI: ovary, 48 hours exposure.
Another experiment deals with PANC1. The experiment in a line: SRB colorimetric cell growth inhibition assay. The following applies: for GI50 / CC50: Homo sapiens, PANC-1, 48 h; for CC50: read-out: LC50; for TGI: PANC1, pancreas, 48 hours exposure.
In a further experiment the test system is HELA. The experiment in a line: SRB colorimetric cell growth inhibition assay. The following applies: for TGI: HELA, cervix, 48 hours exposure; for GI50 / CC50: Homo sapiens, HeLa, 48 h; for CC50: read-out: LC50.
The next experiment deals with DU-145. The experiment in a line: SRB colorimetric cell growth inhibition assay. Particulars: for TGI: DU-145, prostate, 48 hours exposure; for GI50 / CC50: Homo sapiens, DU-145, 48 h; for CC50: read-out: LC50.
A further experiment deals with A549. As to the kind of experiment: SRB colorimetric cell growth inhibition assay. The following applies: for TGI: A549, NSCL, 48 hours exposure; for GI50 / CC50: Homo sapiens, A549, 48 h; for CC50: read-out: LC50.
The next experiment has as its system SK-MEL-28. The experiment in a line: SRB colorimetric cell growth inhibition assay. Particulars: for GI50 / CC50: Homo sapiens, SK-MEL-28, 48 h; for CC50: read-out: LC50; for TGI: SK-MEL-28, melanoma, 48 hours exposure.
For another experiment, the system named is LN-caP. The experiment in a line: SRB colorimetric cell growth inhibition assay.
The next experiment relates to LOVO-DOX. As to the kind of experiment: SRB colorimetric cell growth inhibition assay. The following applies: for GI50 / CC50: Homo sapiens, 48 h; for CC50: read-out: LC50; for TGI: LOVO-DOX, colon (MDR), 48 hours exposure.
The subject of the next experiment is IGROV-ET. The experiment in a line: SRB colorimetric cell growth inhibition assay. The following applies: for GI50 / CC50: Homo sapiens, 48 h; for CC50: read-out: LC50; for TGI: IGROV-ET, ovary, 48 hours exposure.
In the next experiment the test system is HELA-APL. As to the kind of experiment: SRB colorimetric cell growth inhibition assay. The following applies: for TGI: HELA-APL, cervix, Aplidine resistant, 48 hours exposure; for GI50 / CC50: Homo sapiens, 48 h; for CC50: read-out: LC50.
The test system of another experiment is HT29. The experiment in a line: SRB colorimetric cell growth inhibition assay. The following applies: for TGI: HT29, colon, 48 hours exposure; for GI50 / CC50: Homo sapiens, HT-29, 48 h; for CC50: read-out: LC50.
For another experiment, the system named is LOVO. The experiment in a line: SRB colorimetric cell growth inhibition assay. The following applies: for GI50 / CC50: Homo sapiens, LoVo, 48 h; for CC50: read-out: LC50; for TGI: LOVO, colon, 48 hours exposure.
The test system of experiment [1] is Peptococcus assaccharolyticus. The following applies: Tetrahedron 1994, 50, 3415-3426; cited from earlier work.
A further experiment has as its system Escherichia coli. The following applies: cited from earlier work.
For another experiment, the system named is Clostridium perfringens. The following applies: Tetrahedron 1994, 50, 3415-3426; cited from earlier work.
Another experiment relates to Pseudomonas aeruginosa. Particulars: cited from earlier work.
A further experiment concerns Bacteroides fragilis. The following applies: Tetrahedron 1994, 50, 3415-3426; cited from earlier work.
The test system of the next experiment is Streptococcus fecalis. The following applies: J. Org. Chem. 1992, 57, 3832-3835; cited from earlier work.
Another experiment relates to Staphylococcus aureus. The following applies: cited from earlier work.
Setting [2] is: J. Org. Chem. 1992, 57, 3832-3835.
Where [3] appears, read: Tetrahedron 1994, 50, 3415-3426.

Read-outs that look alike come from different tables or passages of the source.

By GI50 is commonly meant the concentration at which growth is held to half of that of the control. In the case of `CCCCCCC#C/C=C\CCCCCCCC1=NCCCN1CCCCNC(=N)N` [Compound A], the GI50 in the experiment on SK-BR3 is 0.789 µM; in the experiment on IGROV it was 0.579 µM; with PANC1 it was 0.535 µM; in the experiment with HELA, 0.801 µM; in the experiment with DU-145, 0.424 µM; in the experiment with A549, 1.22 µM. For the same compound, the GI50 worked out at 0.649 µM in the experiment with SK-MEL-28; 0.333 µM with LN-caP (Homo sapiens, LNCaP, 48 h); 1.78 µM with LOVO-DOX; 0.463 µM in the experiment on IGROV-ET; 0.54 µM with HELA-APL; 1.01 µM in the experiment with HT29. For the same compound, the GI50 in the experiment on LOVO was 0.475 µM. Besides, the CC50 turned out to be 1.81 µM with SK-BR3; 5.31 µM in the experiment on IGROV; 2.91 µM in the experiment with PANC1; 1.04 µM with HELA; 1.83 µM with DU-145; 12.5 µM in the experiment with A549. The CC50 stood at 7.66 µM in the experiment on SK-MEL-28; 1.37 µM in the experiment on LN-caP (Homo sapiens, LNCaP, 48 h, read-out: LC50); 13 µM in the experiment with LOVO-DOX; 4.42 µM in the experiment with IGROV-ET; 2.11 µM with HELA-APL; 8.42 µM in the experiment with HT29. Besides, the CC50 in the experiment with LOVO stood at 1.41 µM. In addition, the TGI came to 1.20E−6 Molar in the experiment with SK-BR3; 1.53E−6 Molar in the experiment with IGROV; 1.16E−6 Molar in the experiment with PANC1; 2.42E−6 Molar in the experiment with HELA; 8.80E−7 Molar in the experiment with DU-145; 3.61E−6 Molar in the experiment with A549. For the same compound, the TGI in the experiment on SK-MEL-28 was 2.49E−6 Molar; in the experiment on LN-caP (LN-caP, prostate, 48 hours exposure), 6.73E−7 Molar; with LOVO-DOX, 5.14E−6 Molar; with IGROV-ET, 1.26E−6 Molar; in the experiment with HELA-APL it was 1.07E−6 Molar; with HT29, 2.98E−6 Molar. The compound further gave a TGI in the experiment on LOVO of 8.17E−7 Molar.
Consider `N=C(N)NCCCCN1CCCN=C1CCCCCCCC=O` [Compound B], for which the 50% growth inhibitory concentration (GI50) in the experiment with SK-BR3, with IGROV, in the experiment with PANC1, in the experiment with HELA, in the experiment with DU-145 and in the experiment on A549 was greater than 9.29 µM in each case. Besides, the GI50 in the experiment on SK-MEL-28, in the experiment with LOVO-DOX, in the experiment with IGROV-ET, with HELA-APL, with HT29 and in the experiment with LOVO was greater than 9.29 µM throughout. The CC50 with SK-BR3, in the experiment on IGROV, with PANC1, with HELA, in the experiment with DU-145 and with A549 was greater than 9.29 µM throughout. In addition, the CC50 with SK-MEL-28, in the experiment with LOVO-DOX, in the experiment on IGROV-ET, in the experiment with HELA-APL, with HT29 and with LOVO was greater than 9.29 µM throughout. In addition, the TGI in the experiment on SK-BR3, in the experiment with IGROV, with PANC1, in the experiment with HELA, in the experiment on DU-145 and in the experiment on A549 was greater than 9.29E−6 Molar throughout. For the same compound, the TGI with SK-MEL-28, in the experiment with LOVO-DOX, with IGROV-ET, in the experiment on HELA-APL, with HT29 and in the experiment on LOVO was greater than 9.29E−6 Molar in each case.
The MIC is the smallest concentration in the dilution series that meets the test's criterion for growth inhibition. As for Phloeodictine A, the MIC is 10 mg/L in [1]; 1 mg/L with Escherichia coli (setting [2]); 3 mg/L in the experiment on Escherichia coli (setting [3]); 30 mg/L in the experiment with Clostridium perfringens; 10 mg/L in the experiment with Pseudomonas aeruginosa (setting [2]); 30 mg/L with Pseudomonas aeruginosa (setting [3]). Besides, the MIC with Bacteroides fragilis was 1 mg/L; in the experiment with Streptococcus fecalis, 5 mg/L; in the experiment with Staphylococcus aureus (setting [2]), 1 mg/L; in the experiment on Staphylococcus aureus (setting [3]) it was 3 mg/L.
For Phloeodictine B, the MIC in experiment [1] was greater than 30 mg/L; in the experiment on Escherichia coli (setting [2]), 30 mg/L; in the experiment on Escherichia coli (setting [3]), 30 mg/L; in the experiment with Clostridium perfringens, greater than 30 mg/L; with Pseudomonas aeruginosa (setting [2]) it was greater than 30 mg/L; with Bacteroides fragilis, greater than 30 mg/L. Also, the values for the MIC in the experiment with Streptococcus fecalis, with Staphylococcus aureus (setting [2]) and in the experiment on Staphylococcus aureus (setting [3]) were greater than 15 mg/L, 3 mg/L and 30 mg/L, respectively.

These data come from patent US20100216817A1, “Antitumoral Tetrahydro-Pyrimidines” (Pharma Mar SA, priority 2005, published 2010).
